Structures can show the parent of a compound that is named as a salt.
Assays:
[1] = test system: A/California/07/2009 virus (H1N1; CA07); set-up: species or system BALB/c mice; conditions: mouse, in vivo
[2] = test system: A/California/07/2009 virus (H1N1; CA07); set-up: species or system BALB/c mice; conditions: mouse, in vivo; remark: listed apart in the source

## O=S([O-])[O-].[Na+].[Na+] [Sodium sulfite]
[1]
  Mean value of antibody titers, Only compound: <10
  Mean value of antibody titers, Vaccine + compound: 2080.00
  Relative ratio of antibody titer to alum (Compound/alum): 1.30
  virus-specific antibody titers compared with the alum adjuvant: equal to or higher than the alum adjuvant did

## C[C@@H]1O[C@@H](OC[C@H]2O[C@@H](Oc3c(-c4ccc(O)c(O)c4)oc4cc(O)cc(O)c4c3=O)[C@H](O)[C@@H](O)[C@@H]2O)[C@H](O)[C@H](O)[C@H]1O [Rutin]
[2]
  Antibody titers in primary screening, Vaccine + compound: 2560.00
[1]
  Antibody titers in secondary screening, Vaccine + compound: 1320

## CC1=C(/C=C/C(C)=C/C=C/C(C)=C/C=C/C=C(C)/C=C/C=C(C)/C=C/C2=C(C)CCCC2(C)C)C(C)(C)CCC1 [β-Carotene]
[2]
  Antibody titers in primary screening, Vaccine + compound: 960.00
[1]
  Antibody titers in secondary screening, Vaccine + compound: 1120

## CC(=O)[O-].[Na+] [Sodium acetate]
[1]
  Mean value of antibody titers, Only compound: <10
  Mean value of antibody titers, Vaccine + compound: 740.00
  Relative ratio of antibody titer to alum (Compound/alum): 0.66

## CC(C)=CCCC(C)CCO (racemic) [(+/−)-Citronellol]
[2]
  Antibody titers in primary screening, Vaccine + compound: 960.00
[1]
  Antibody titers in secondary screening, Vaccine + compound: 260

## COc1ccc([C@@H]2CC(=O)c3c(O)cc(O[C@@H]4O[C@H](CO[C@@H]5O[C@@H](C)[C@H](O)[C@@H](O)[C@H]5O)[C@@H](O)[C@H](O)[C@H]4O)cc3O2)cc1O [Hesperidin]
[2]
  Antibody titers in primary screening, Vaccine + compound: 3840.00
  Relative ratio of antibody titer to alum (compound/alum), primary screening: 1.13
[1]
  Antibody titers in secondary screening, Vaccine + compound: 2240
  Relative ratio of antibody titer to alum (compound/alum), secondary screening: 4.00

## CCN(Cc1cccc(S(=O)(=O)[O-])c1)c1ccc(C(=C2C=CC(=[N+](CC)Cc3cccc(S(=O)(=O)[O-])c3)C=C2)c2ccc(O)cc2S(=O)(=O)[O-])cc1.[Na+].[Na+]
[2]
  Antibody titers in primary screening, Vaccine + compound: 2133.33
  Relative ratio of antibody titer to alum (compound/alum), primary screening: 1.00
[1]
  Antibody titers in secondary screening, Vaccine + compound: 440
  Relative ratio of antibody titer to alum (compound/alum), secondary screening: 0.73

## COC(=O)c1ccccc1N [Methyl Anthranilate]
[2]
  Antibody titers in primary screening, Vaccine + compound: 693.33
[1]
  Antibody titers in secondary screening, Vaccine + compound: 2240

## O=C([O-])c1ccccc1.[Na+] [Sodium benzoate]
[1]
  Mean value of antibody titers, Only compound: <10
  Mean value of antibody titers, Vaccine + compound: 1600.00
  Relative ratio of antibody titer to alum (Compound/alum): 1.21
  virus-specific antibody titers compared with the alum adjuvant: equal to or higher than the alum adjuvant did

## CCN(Cc1cccc(S(=O)(=O)[O-])c1)c1ccc(C(=C2C=CC(=[N+](CC)Cc3cccc(S(=O)(=O)[O-])c3)C=C2)c2ccccc2S(=O)(=O)[O-])cc1.[Na+].[Na+]
[2]
  Antibody titers in primary screening, Vaccine + compound: 1333.33
  Relative ratio of antibody titer to alum (compound/alum), primary screening: 0.69
[1]
  Antibody titers in secondary screening, Vaccine + compound: 990
  Relative ratio of antibody titer to alum (compound/alum), secondary screening: 1.65

## CC(CC=O)CCCC(C)(C)O (centres unmarked) [Hydroxycitronellal]
[2]
  Antibody titers in primary screening, Vaccine + compound: 2773.33
[1]
  Antibody titers in secondary screening, Vaccine + compound: 1280

## Cc1c(C(=O)O)c(O)cc2c1C(=O)c1c(O)c([C@@H]3O[C@H](CO)[C@@H](O)[C@H](O)[C@H]3O)c(O)c(O)c1C2=O [Carminic acid]
[2]
  Antibody titers in primary screening, Vaccine + compound: 746.67
[1]
  Antibody titers in secondary screening, Vaccine + compound: 960

## O=C1/C(=C2\Nc3ccc(S(=O)(=O)[O-])cc3C2=O)Nc2ccc(S(=O)(=O)[O-])cc21.[Na+].[Na+] [Indigo Carmine]
[2]
  Antibody titers in primary screening, Vaccine + compound: 1280.00
  Relative ratio of antibody titer to alum (compound/alum), primary screening: 1.50
[1]
  Antibody titers in secondary screening, Vaccine + compound: 485
  Relative ratio of antibody titer to alum (compound/alum), secondary screening: 0.81

## c1ccc2cnccc2c1 [Isoquinoline]
[2]
  Antibody titers in primary screening, Vaccine + compound: 1493.33
[1]
  Antibody titers in secondary screening, Vaccine + compound: 1200

## O=C([O-])[C@H](O)[C@@H](O)[C@H](O)[C@H](O)CO.[Na+]
[1]
  Mean value of antibody titers, Only compound: <10
  Mean value of antibody titers, Vaccine + compound: 1600.00
  Relative ratio of antibody titer to alum (Compound/alum): 1.00

## CC(C)=CCC/C(C)=C/COC=O [Geranyl Formate]
[2]
  Antibody titers in primary screening, Vaccine + compound: 2560.00
[1]
  Antibody titers in secondary screening, Vaccine + compound: 960

## COC(=O)[C@H](Cc1ccccc1)NC(=O)[C@H](CC(=O)O)NCCC(C)(C)C [Neotame]
[2]
  Antibody titers in primary screening, Vaccine + compound: 2560.00
  Relative ratio of antibody titer to alum (compound/alum), primary screening: 2.00
[1]
  Antibody titers in secondary screening, Vaccine + compound: 720
  Relative ratio of antibody titer to alum (compound/alum), secondary screening: 1.00
  virus-specific antibody titers compared with the alum adjuvant: equal to or higher than the alum adjuvant did

## CC1(C)[C@@H](O[C@H]2O[C@H](C(=O)O)[C@@H](O)[C@H](O)[C@H]2O[C@@H]2O[C@H](C(=O)O)[C@@H](O)[C@H](O)[C@H]2O)CC[C@]2(C)[C@H]3C(=O)C=C4[C@@H]5C[C@@](C)(C(=O)O)CC[C@]5(C)CC[C@@]4(C)[C@]3(C)CC[C@@H]12
[2]
  Antibody titers in primary screening, Vaccine + compound: 5973.33
[1]
  Antibody titers in secondary screening, Vaccine + compound: 2560

## O=S([O-])O.[Na+]
[1]
  Mean value of antibody titers, Only compound: <10
  Mean value of antibody titers, Vaccine + compound: 730.00
  Relative ratio of antibody titer to alum (Compound/alum): 0.55

## O=C([O-])[C@H](O)[C@@H](O)[C@H](O)[C@H](O)CO.O=C([O-])[C@H](O)[C@@H](O)[C@H](O)[C@H](O)CO.[Fe+2]
[2]
  Antibody titers in primary screening, Vaccine + compound: 853.33
  Relative ratio of antibody titer to alum (compound/alum), primary screening: 0.76
[1]
  Antibody titers in secondary screening, Vaccine + compound: 3040
  Relative ratio of antibody titer to alum (compound/alum), secondary screening: 1.90

## O=S([O-])([O-])=S.[Na+].[Na+] [Sodium thiosulfate]
[1]
  Mean value of antibody titers, Only compound: <10
  Mean value of antibody titers, Vaccine + compound: 1320.00
  Relative ratio of antibody titer to alum (Compound/alum): 1.00

## Cn1cnc2c1c(=O)[nH]c(=O)n2C [Theobromine]
[2]
  Antibody titers in primary screening, Vaccine + compound: 1333.33
[1]
  Antibody titers in secondary screening, Vaccine + compound: 1440

## [Cl-].[K+] [Potassium chloride]
[1]
  Mean value of antibody titers, Only compound: <10
  Mean value of antibody titers, Vaccine + compound: 2920.00
  Relative ratio of antibody titer to alum (Compound/alum): 1.83

## OC[C@@H](O)[C@H](O)[C@@H](O)CO [Xylitol]
[1]
  Mean value of antibody titers, Only compound: <10
  Mean value of antibody titers, Vaccine + compound: 560.00
  Relative ratio of antibody titer to alum (Compound/alum): 0.35

## CC(C)=CCC[C@@H](C)CC=O
[2]
  Antibody titers in primary screening, Vaccine + compound: 333.33
[1]
  Antibody titers in secondary screening, Vaccine + compound: 35

## CC(C)C1=CC2=CC[C@@H]3[C@](C)(CCC[C@@]3(C)C(=O)O)[C@H]2CC1 [Abietic acid]
[2]
  Antibody titers in primary screening, Vaccine + compound: 533.33
[1]
  Antibody titers in secondary screening, Vaccine + compound: 1280

## CC(/C=C/C=C(\C)C(=O)O[C@@H]1O[C@H](CO[C@@H]2O[C@H](CO)[C@@H](O)[C@H](O)[C@H]2O)[C@@H](O)[C@H](O)[C@H]1O)=C\C=C\C=C(C)\C=C\C=C(/C)C(=O)O[C@@H]1O[C@H](CO[C@@H]2O[C@H](CO)[C@@H](O)[C@H](O)[C@H]2O)[C@@H](O)[C@H](O)[C@H]1O [Crocin]
[2]
  Antibody titers in primary screening, Vaccine + compound: 1066.67
[1]
  Antibody titers in secondary screening, Vaccine + compound: 480

## [Br-].[Na+] [Sodium bromide]
[1]
  Mean value of antibody titers, Only compound: <10
  Mean value of antibody titers, Vaccine + compound: 970.00
  Relative ratio of antibody titer to alum (Compound/alum): 0.87

From US20240261398A1 (priority 2018, published 2024)
